Results reported in ChEMBL document CHEMBL2074564, “P-glycoprotein interactions of nefazodone and trazodone in cell culture” (J Clin Pharmacol, 2001).

Tests used:
Assay type in all cases: functional, cell-based
[1] = target: T1, ATP-dependent translocase ABCB1 (Homo sapiens, UniProt P08183); test: TP_TRANSPORTER: Western blot, LS180V cell
[2] = target: T1, ATP-dependent translocase ABCB1; test: TP_TRANSPORTER: inhibition of Rhodamine 123 transepithelial transport (basal to apical) (R123: 5 uM) in Caco-2 cells
[3] = target: T1, ATP-dependent translocase ABCB1; test: TP_TRANSPORTER: transepithelial transport (basal to apical) in Caco-2 cells

T1 sequence (P08183 whole entry): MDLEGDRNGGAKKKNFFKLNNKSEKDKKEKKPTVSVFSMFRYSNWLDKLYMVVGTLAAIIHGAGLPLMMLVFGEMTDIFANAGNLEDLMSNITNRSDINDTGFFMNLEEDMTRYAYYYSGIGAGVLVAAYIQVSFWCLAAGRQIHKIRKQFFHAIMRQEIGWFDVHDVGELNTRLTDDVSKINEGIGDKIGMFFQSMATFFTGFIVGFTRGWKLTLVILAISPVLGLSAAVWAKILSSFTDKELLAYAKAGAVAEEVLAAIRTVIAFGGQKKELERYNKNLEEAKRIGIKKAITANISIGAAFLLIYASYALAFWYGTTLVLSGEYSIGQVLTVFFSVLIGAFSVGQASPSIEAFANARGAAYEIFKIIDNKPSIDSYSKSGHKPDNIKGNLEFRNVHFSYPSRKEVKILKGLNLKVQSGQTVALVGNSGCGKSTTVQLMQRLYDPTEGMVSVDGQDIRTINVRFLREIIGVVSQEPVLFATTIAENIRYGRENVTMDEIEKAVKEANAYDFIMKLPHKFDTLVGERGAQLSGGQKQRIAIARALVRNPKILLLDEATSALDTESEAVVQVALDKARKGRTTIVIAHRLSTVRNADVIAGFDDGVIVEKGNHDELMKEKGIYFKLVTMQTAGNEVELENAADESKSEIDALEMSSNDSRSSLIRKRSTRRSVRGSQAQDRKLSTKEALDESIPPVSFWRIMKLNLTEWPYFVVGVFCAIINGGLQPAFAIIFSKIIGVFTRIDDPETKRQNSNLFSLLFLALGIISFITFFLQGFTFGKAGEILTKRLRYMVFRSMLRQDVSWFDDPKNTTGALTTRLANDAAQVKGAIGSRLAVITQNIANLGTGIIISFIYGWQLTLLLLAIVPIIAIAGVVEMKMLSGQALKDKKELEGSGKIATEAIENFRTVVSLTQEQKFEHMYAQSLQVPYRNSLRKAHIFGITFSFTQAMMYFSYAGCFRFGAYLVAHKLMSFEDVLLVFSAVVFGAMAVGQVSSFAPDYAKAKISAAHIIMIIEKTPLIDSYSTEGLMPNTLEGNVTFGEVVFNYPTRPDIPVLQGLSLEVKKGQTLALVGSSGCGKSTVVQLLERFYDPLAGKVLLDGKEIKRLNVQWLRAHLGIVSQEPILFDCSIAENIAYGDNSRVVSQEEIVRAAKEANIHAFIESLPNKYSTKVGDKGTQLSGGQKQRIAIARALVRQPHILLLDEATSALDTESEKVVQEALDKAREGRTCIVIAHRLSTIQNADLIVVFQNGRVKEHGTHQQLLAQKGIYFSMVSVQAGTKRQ

| Activity [1] | IC50 [2] [µM] | Activity [3] | Compound |
| --- | --- | --- | --- |
| inducer [+] | 4.7 | is not a substrate [-] | CCc1nn(CCCN2CCN(c3cccc(Cl)c3)CC2)c(=O)n1CCOc1ccccc1 [NEFAZODONE] |
| inducer [+] | – | – | O=c1n(CCCN2CCN(c3cccc(Cl)c3)CC2)nc2ccccn12 [TRAZODONE] |
